Data: article PMC6222450, “Computer-Aided Studies for Novel Arylhydantoin 1,3,5-Triazine Derivatives as 5-HT6 Serotonin Receptor Ligands with Antidepressive-Like, Anxiolytic and Antiobesity Action In Vivo” (Molecules : A Journal of Synthetic Chemistry and Natural …, 2018)
“And” between values parts separate entries of the source, which are not always exact repeats. Equal entries are not always repeated.

Legend:
[1] = Lipophilicity by RP-TLC; type: physicochemical; conditions: RP-18 TLC, water/methanol, extrapolated to 100% water
Method: For comparison, the active arylmethyl-triazine compounds previously found (1–3) were also examined. Stationary phase RP-18 and mixtures of water/methanol […] as a mobile phase were employed. RM values were calculated from the RF data obtained. […] The regression coefficients (r^2) determined for all compounds were higher than 0.95. On the basis of the linear relationship between RM values and the volume fraction of methanol, values of RM0 in the systems analyzed corresponding to 100% of water were obtained by extrapolation. RM0 values received for the compounds tested ranged from 3.14 to 4.49 (Figure 6).
The mobile phases were prepared by mixing the respective amounts of water and organic modifier (methanol) in a range from 40 to 90% (v/v) in 5% increments. TLC was performed on Silica gel 60RP-18 F254 plates (7 × 10 cm) plates (Merck, Darmstadt, Germany). Methanol was used to prepare the solutions of the substances. Solutions (10 µL) of the analyzed compounds were applied to the plates as 5 mm bands, 10 mm apart and 10 mm from the lower edge and sides of the plates, by using Linomat V applicator (Camag, Basel, Switzerland). The vertical chamber (Sigma–Aldrich, St. Louis, MI, USA), 20 × 10 × 18 cm in size, was saturated with mobile phase for 20 min. Development was carried out over 9 cm from the starting line at a temperature of 20 °C. Next, the plates were dried at room temperature, and the spots were observed under ultraviolet light at 254 nm and/or 366 nm (UV lamp, Camag, Basel, Switzerland). In each case, sharp and symmetric spots without a tendency for tailing were obtained. Each experiment was run in triplicate and mean RF (retardation factor) values were calculated.
Starting from the RF values, the RM parameters were computed as described in the formula:RM = log(1/RF − 1)
The linear correlations between the RM values of the substances and the concentration of methanol in mobile phases were calculated for each compound with the Soczewiński-Wachtmeister equation [22]:RM = RM0 + aC where C is the concentration of the organic modifier (in %) in the mobile phase, a is the slope, and RM0 is the […].

[2] = tested on: HEK-293 cells; test: Toxicity in vitro, MTS test; type: cell-based; conditions: 72 h
Method: The preliminary evaluation of the safety profile for the most promising 5-HT6R ligands 6 and 26 was performed in vitro with the HEK-293 eukaryotic cell line. The compounds examined were dissolved in culture growth media and incubated with cells for 72 h. Next, the MTS test was applied to determine the viability of the cells. […] The reference cytostatic drug doxorubicin (DX) at the very low concentration 1 μM was also cytotoxic.
The ATCC CRL 1573 HEK-293 cells were seeded in 96-well plates (NuncTM) at a concentration of 1 × 10^4 cells/well in 200 μL in Dulbecco’s Modified Eagle’s Medium (Gibco®) supplemented with 10% fetal bovine serum (Gibco®), and cultured at 37 °C in an atmosphere containing 5% of CO2 for 24 h to reach 60% confluence. The 10 mM stock solutions of 5-HT6R ligands 6 and 26 in DMSO were diluted into fresh growth medium and added into the microplates at the final concentrations 0.1 μM –100 μM. […] The cytostatic drug doxorubicin (Sigma-Aldrich) at the concentration 1 μM was used as a reference. After 72 h of incubation 20 μL of CellTiter 96® AQueous Non-Radioactive Cell Proliferation Assay (MTS) (Promega®) was added to each well and the cells were incubated under the same conditions for 2 h. The absorbance of the samples was measured using a microplate reader EnSpire (PerkinElmer, Waltham, MA, USA) at 490 nm. Statistical significance was analyzed by GraphPad Prism™ software v. 5.01 (GraphPad Software, La Jolla, CA, USA) using One-way ANOVA and Bonferroni’s Multiple Comparison Post Test.

[3] = target: T1, 5-HT7bR (Homo sapiens, UniProt P34969); test: Radioligand binding assay, 5-HT7bR, [3H]-5-CT; conditions: human 5-HT7b receptor stably expressed in HEK-293 cells; read-out: Ki 5-HT7 [3H]-5-CT
T1 construct: expressed in transfected cells; host or cells: HEK-293

[4] = target: T2, 5-HT1A (Homo sapiens, UniProt P08908); test: Radioligand binding assay, 5-HT1A, [3H]-8-OH-DPAT; conditions: human receptor stably expressed in HEK-293 cells
T2 construct: expressed in transfected cells; host or cells: HEK-293
T2 sequence (P08908 1-422): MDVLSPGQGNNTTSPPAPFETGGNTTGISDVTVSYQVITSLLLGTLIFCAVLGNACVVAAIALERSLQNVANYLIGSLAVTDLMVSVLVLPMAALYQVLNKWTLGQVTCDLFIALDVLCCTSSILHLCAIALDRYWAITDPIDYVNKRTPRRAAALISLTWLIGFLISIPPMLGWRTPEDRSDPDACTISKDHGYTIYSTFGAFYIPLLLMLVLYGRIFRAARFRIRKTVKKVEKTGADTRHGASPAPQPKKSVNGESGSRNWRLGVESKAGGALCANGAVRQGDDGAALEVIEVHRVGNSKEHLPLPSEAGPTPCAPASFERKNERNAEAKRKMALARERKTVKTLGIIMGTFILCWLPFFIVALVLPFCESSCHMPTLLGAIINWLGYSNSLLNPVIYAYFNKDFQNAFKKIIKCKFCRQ

[5] = target: T3, dopaminergic D2LR (Homo sapiens, UniProt P14416); test: Radioligand binding assay, D2LR, [3H]-Raclopride; conditions: human D2L receptor stably expressed in HEK-293 cells; read-out: Ki D2 [3H]-Raclopride
T3 construct: expressed in transfected cells; host or cells: HEK-293

[6] = Body weight of non-obese rats fed palatable diet (model of excessive eating); type: in vivo, rat
Excerpt: In order to determine the anorectic activity of 6 or 26, the model of excessive eating was used. Male Wistar rats (170–190 g) were housed in a pair in plastic cages in constant temperature facilities exposed to a light-dark cycle. Water and food were available ad libitum. Two groups of 6 rats were fed with diets consisting of milk chocolate with nuts, cheese, salted peanuts, and 7% condensed milk and also had access to standard feed (Labofeed B, Morawski Manufacturer Feed, Kcynia, Poland) and water ad libitum for 3 weeks. Palatable control group (palatable diet + vehicle) received vehicle (1% Tween 80, intraperitoneally), while palatable test group (palatable diet + 6 or palatable + 26) was injected (intraperitoneally) with 6 or 26 at the dose of 5 mg/kg b.w. dissolved in 1% Tween 80 (1 mL/kg). Body weights were measured daily, immediately prior to administration of drugs.
The palatable diet contained: 100 g peanuts—614 kcal; 100 mL condensed milk—131 kcal; 100 g milk chocolate—529 kcal; 100g cheese (Greek type)—270 kcal. The standard diet contained 100 g feed—280 kcal.

[7] = Body weight of non-obese rats fed only standard diet; type: in vivo, rat; conditions: rats consuming standard feed, 5 mg/kg b.w. i.p.
Method: Male Wistar rats (170–190 g) were housed in a pair in plastic cages in constant temperature facilities exposed to a light-dark cycle. Control group (standard diet + vehicle) received vehicle (1% Tween 80, intraperitoneally), while the test group (standard diet + 6 or standard diet + 26) was injected (intraperitoneally) with 6 or 26 at the dose of 5 mg/kg b.w. dissolved in 1% Tween 80 (1 mL/kg). Body weights were measured daily immediately prior to administration of drugs.

[8] = target: T4, human serotonin 5-HT6R (Homo sapiens, UniProt P50406); test: Radioligand binding assay, 5-HT6R, [3H]-LSD displacement; conditions: for Ki: human receptor stably expressed in HEK-293 cells, mean of at least two independent experiments, read-out: Ki 5-HT6 [3H]-LSD
T4 construct: expressed in transfected cells; host or cells: HEK-293
Method: Five selective radioligands were employed (Table 1).
Radioligand binding assays were used to determine the affinity of the synthesized compounds for human serotonin 5-HT6R, which were stably expressed in HEK-293 cells. […] Each compound was tested in triplicate at 7 to 8 different concentrations (10^−11 to 10^−4 M). The inhibition constants (Ki) were calculated using the Cheng–Prusoff equation [40], and the results are expressed as the mean of at least two independent experiments.

[9] = target: T5, 5-HT2A (Homo sapiens, UniProt P28223); test: Radioligand binding assay, 5-HT2A, [3H]-Ketanserin; conditions: human receptor stably expressed in HEK-293 cells
T5 construct: expressed in transfected cells; host or cells: HEK-293
T5 sequence (P28223 whole entry): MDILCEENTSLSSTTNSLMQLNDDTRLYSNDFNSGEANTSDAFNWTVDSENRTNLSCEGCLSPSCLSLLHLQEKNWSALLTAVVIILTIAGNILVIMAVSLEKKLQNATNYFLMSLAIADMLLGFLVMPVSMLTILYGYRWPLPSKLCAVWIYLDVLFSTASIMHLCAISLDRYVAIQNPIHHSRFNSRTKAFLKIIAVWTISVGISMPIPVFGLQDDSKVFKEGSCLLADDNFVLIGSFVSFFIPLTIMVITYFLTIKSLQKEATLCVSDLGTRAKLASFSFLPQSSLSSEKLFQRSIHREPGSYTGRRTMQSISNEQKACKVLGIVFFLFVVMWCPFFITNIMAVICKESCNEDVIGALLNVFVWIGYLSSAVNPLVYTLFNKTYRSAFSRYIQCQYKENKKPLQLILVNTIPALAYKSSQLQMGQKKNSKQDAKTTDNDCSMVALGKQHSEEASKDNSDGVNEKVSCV

T3 sequence (P14416 whole entry): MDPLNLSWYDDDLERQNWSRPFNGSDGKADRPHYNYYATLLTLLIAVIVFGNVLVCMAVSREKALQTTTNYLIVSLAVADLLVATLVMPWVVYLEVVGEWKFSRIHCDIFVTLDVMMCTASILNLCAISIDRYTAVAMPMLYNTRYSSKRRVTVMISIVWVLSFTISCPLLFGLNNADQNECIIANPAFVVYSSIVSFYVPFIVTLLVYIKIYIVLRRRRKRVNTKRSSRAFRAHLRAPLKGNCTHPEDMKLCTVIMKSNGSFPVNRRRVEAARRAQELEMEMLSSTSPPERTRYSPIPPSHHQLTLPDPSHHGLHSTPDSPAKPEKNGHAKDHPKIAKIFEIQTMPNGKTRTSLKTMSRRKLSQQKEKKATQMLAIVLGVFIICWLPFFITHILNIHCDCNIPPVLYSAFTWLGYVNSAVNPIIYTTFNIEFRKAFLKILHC
T1 sequence (P34969 1-432 limits assumed): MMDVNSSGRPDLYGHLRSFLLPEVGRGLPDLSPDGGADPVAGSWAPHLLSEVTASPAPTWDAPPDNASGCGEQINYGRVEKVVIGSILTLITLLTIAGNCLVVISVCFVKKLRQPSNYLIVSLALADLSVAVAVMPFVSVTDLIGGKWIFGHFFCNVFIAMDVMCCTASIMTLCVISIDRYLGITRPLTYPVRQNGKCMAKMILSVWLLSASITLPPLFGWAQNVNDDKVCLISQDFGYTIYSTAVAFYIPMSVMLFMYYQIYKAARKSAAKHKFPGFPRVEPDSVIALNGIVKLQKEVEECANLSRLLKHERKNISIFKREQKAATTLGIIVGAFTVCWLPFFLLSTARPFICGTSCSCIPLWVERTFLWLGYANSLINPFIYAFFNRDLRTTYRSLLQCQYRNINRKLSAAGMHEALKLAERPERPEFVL
T4 sequence (P50406 whole entry): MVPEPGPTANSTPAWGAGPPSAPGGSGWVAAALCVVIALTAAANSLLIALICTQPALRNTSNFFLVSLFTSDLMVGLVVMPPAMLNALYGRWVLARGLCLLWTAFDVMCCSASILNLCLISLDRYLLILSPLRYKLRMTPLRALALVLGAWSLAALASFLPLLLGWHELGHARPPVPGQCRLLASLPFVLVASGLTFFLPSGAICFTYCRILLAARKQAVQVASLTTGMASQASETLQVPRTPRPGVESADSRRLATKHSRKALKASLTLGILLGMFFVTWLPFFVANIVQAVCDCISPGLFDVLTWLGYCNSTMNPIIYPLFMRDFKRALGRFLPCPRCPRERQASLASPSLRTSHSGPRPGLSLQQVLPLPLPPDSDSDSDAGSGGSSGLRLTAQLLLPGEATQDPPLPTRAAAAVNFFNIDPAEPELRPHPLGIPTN

| RM0 [1] | Ki [3] [µM] | Ki [4] [µM] | Ki [5] [µM] | Ki [8] | Structure (SMILES) | also measured |
| --- | --- | --- | --- | --- | --- | --- |
| 3.39 | 3.71 | 23.3 | 4.1 | < 0.2 µM and 0.127 µM | CN1CCN(c2nc(N)nc(CN3C(=O)N(Cc4ccc(Cl)cc4)C(C)(C)C3=O)n2)CC1 [Compound 6, 1-(4-Chlorobenzyl)-3-((4-amino-6-(4-methylpiperazin-1-yl)-1,3,5-triazin-2-yl)methyl)-5,5-dimethylimidazolidine-2,4-dione] | toxicity in HEK-293 cells ([2]; 0.1 μM–100 μM): low; viability of HEK-293 cells ([2]; 100 μM, *** p < 0.001): statistically significant decrease of viability; day of experiment from which groups differed significantly ([6]; rats fed palatable feed, 5 mg/kg b.w. i.p. daily): 16 days; weight gain vs control group ([6]; rats fed palatable feed, 5 mg/kg b.w. i.p., 21 days): significantly less weight gain; body weight vs control animals fed standard feed ([6]; treated rats with access to preferential feed, 5 mg/kg b.w. i.p.): differed significantly; effect on body weight [7]: No effects on body weight |
| 3.14 | – | – | – | – | CN1CCN(c2nc(N)nc(Cc3cccc4ccccc34)n2)CC1 [Compound 1, reference compound] | – |
| 3.58 | – | – | – | – | Cc1cccc(Cc2nc(N)nc(N3CCN(C)CC3)n2)c1 [Compound 3, reference compound] | – |
| – | – | – | – | – | COc1cccc2c1C(=O)c1c(O)c3c(c(O)c1C2=O)C[C@@](O)(C(=O)CO)C[C@@H]3O[C@H]1C[C@H](N)[C@H](O)[C@H](C)O1 [doxorubicin, reference compound] | viability of HEK-293 cells ([2]; 1 μM): cytotoxic |
| 3.22 | 1.62 | 15.4 | 5.01 | 4.28 µM | CN1CCN(c2nc(N)nc(CN3C(=O)N(Cc4ccc(Cl)cc4)C(=O)C3(C)C)n2)CC1 [Compound 5, 3-(4-Chlorobenzyl)-1-((4-amino-6-(4-methylpiperazin-1-yl)-1,3,5-triazin-2-yl)methyl)-5,5-dimethylimidazolidine-2,4-dione] | – |
| 3.51 | 0.938 | 28.1 | 31.2 | < 0.2 µM and 0.176 µM | CN1CCN(c2nc(N)nc(CN3C(=O)NC(C)(c4ccc(Cl)cc4)C3=O)n2)CC1 (stereo not shown) [Compound 7, 3-((4-Amino-6-(4-methylpiperazin-1-yl)-1,3,5-triazin-2-yl)methyl)-5-(4-chlorophenyl)-5-methylimidazolidine-2,4-dione] | – |
| 3.25 | – | – | – | – | CN1CCN(c2nc(N)nc(Cc3cccc(Cl)c3)n2)CC1 [Compound 2, reference compound] | – |
| 4.46 | 0.594 | 3.05 | 6.85 | 1.06 µM | CN1CCN(c2nc(N)nc(CN3C(=O)NC(c4ccc(Cl)cc4)(c4ccc(Cl)cc4)C3=O)n2)CC1 [Compound 8, 3-((4-Amino-6-(4-methylpiperazin-1-yl)-1,3,5-triazin-2-yl)methyl)-5,5-bis(4-chlorophenyl)imidazolidine-2,4-dione] | – |

| Structure (SMILES) | RM0 [1] | Ki [3] [µM] | Ki [4] [µM] | Ki [5] [µM] | Ki [8] | also measured |
| --- | --- | --- | --- | --- | --- | --- |
| CN1CCN(c2nc(N)nc(CN3C(=O)NC(C)(c4ccc(Cl)c(Cl)c4Cl)C3=O)n2)CC1 (stereo not shown) [Compound 23, 3-((4-Amino-6-(4-methylpiperazin-1-yl)-1,3,5-triazin-2-yl)methyl)-5-(2,3,4-trichlorophenyl)-5-methylimidazolidine-2,4-dione] | 4.49 | 8.9 | 6.03 | 4.74 | < 0.2 µM and 0.195 µM | Ki [9]: 3.43 µM |
| CN1CCN(c2nc(N)nc(CN3C(=O)NC(C)(c4cccc5ccccc45)C3=O)n2)CC1 (stereo not shown) [Compound 25, 3-((4-Amino-6-(4-methylpiperazin-1-yl)-1,3,5-triazin-2-yl)methyl)-5-methyl-5-(naphthalen-1-yl)imidazolidine-2,4-dione] | 4.16 | 3.37 | 7.15 | 7.81 | < 0.2 µM and 0.121 µM | selectivity in words ([8]; 5-HT6R vs competitive GPCRs tested): highly selective; Ki [9]: 8.08 µM |
| CN1CCN(c2nc(N)nc(CN3C(=O)N(Cc4ccc5ccccc5c4)C(C)(C)C3=O)n2)CC1 [Compound 18] | 4.04 | 1.53 | 5.72 | 0.888 | < 0.2 µM and 0.182 µM | Ki [9]: 1.91 µM |
